Results reported in ChEMBL document CHEMBL1201862, “PubChem BioAssay data set” (2004).
Active and inactive are the calls of the source.

Assays:
[1] = THP-1 cell cytotoxicity, dose response, cytotoxicity control for non-replicating M. tuberculosis project (AID 489025); assay type: functional
[2] = cells; assay type: functional
[3] = target: T1, High affinity choline transporter 1 (Homo sapiens, UniProt Q9GZV3); experiment: human choline transporter blockers, potency – cell-based, 5-point CRC, membrane potential dye, dose response (AID 504840); assay type: functional
T1 sequence (Q9GZV3 whole entry): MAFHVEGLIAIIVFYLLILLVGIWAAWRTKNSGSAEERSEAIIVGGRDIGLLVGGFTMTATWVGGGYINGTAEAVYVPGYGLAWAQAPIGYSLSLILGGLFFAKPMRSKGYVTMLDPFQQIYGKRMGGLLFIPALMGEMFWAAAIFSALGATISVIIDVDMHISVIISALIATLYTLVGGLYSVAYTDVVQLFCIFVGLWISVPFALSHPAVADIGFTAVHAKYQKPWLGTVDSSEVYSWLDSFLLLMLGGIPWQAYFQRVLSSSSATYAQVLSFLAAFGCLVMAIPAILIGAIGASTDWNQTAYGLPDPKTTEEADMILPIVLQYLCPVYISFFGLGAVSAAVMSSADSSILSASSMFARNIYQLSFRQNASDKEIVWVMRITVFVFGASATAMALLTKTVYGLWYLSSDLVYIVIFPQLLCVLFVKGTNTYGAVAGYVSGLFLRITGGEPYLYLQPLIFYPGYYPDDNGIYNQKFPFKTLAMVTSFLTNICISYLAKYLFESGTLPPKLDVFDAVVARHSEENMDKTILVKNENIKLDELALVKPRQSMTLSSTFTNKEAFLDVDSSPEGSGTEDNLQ

[4] = test system: SN12K1; experiment: cells; assay type: functional; conditions: Homo sapiens
[5] = test system: P388; experiment: cells; assay type: functional; conditions: Mus musculus
[6] = test system: P388/ADR; experiment: cells; assay type: functional; conditions: Mus musculus
[7] = target: T2, Calpain-2 catalytic subunit (Sus scrofa, UniProt P43367); experiment: m-calpain protease blockers, concentration series – biochemical, fluorogenic peptide substrate, dose response (AID 1420); assay type: functional
T2 sequence (P43367 whole entry): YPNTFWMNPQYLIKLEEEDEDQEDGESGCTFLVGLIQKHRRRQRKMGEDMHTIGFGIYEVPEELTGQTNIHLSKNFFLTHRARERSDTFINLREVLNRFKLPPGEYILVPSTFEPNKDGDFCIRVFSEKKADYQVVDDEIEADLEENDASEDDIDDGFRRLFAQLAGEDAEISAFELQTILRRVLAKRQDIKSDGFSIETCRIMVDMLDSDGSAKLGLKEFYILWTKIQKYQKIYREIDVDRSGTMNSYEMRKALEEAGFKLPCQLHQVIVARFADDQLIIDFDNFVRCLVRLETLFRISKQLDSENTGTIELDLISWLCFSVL

[8] = target: Glucose-6-phosphate 1-dehydrogenase (Homo sapiens, UniProt P11413); experiment: inhibition of Homo sapiens G6PD, dose series – biochemical, fluorescence, selectivity assay for P. falciparum G6PD inhibitor project, dose response (AID 504792); assay type: functional
[9] = test system: BJ; experiment: BJ-TERT-LT-ST fibroblast viability loss – cell-based, RAS-independent, luminescence, dose response (AID 1935); assay type: functional; conditions: Homo sapiens;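 also: BJ fibroblasts immortalized with TERT plus LT and ST oncogenes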
[10] = test system: BJ; experiment: BJ-TERT fibroblast viability loss – cell-based, RAS-independent, luminescence, dose response (AID 1933); assay type: functional; conditions: Homo sapiens
[11] = DRD fibroblast viability loss – cell-based, non-viral oncogenic, luminescence, dose response (AID 1934); assay type: functional; conditions: Homo sapiens
[12] = HEK-293T viability loss after treatment – luminescence, T-cell screen hits, cytotoxicity control for TCR NF-kB inhibitor project, dose response (AID 489026); assay type: functional, cell-based;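 also: cells exposed to compound about 14 hours before the viability readout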
[13] = test system: BJ; experiment: cells; assay type: functional, cell-based; conditions: Homo sapiens
[14] = target: T3, Nuclear receptor subfamily 0 group B member 1 (Homo sapiens, UniProt P51843); assay type: functional, cell-based;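 also: HEK293T cells transfected with SF-1 and DAX-1 plus StAR promoter luciferase reporter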
T3 sequence (P51843 whole entry): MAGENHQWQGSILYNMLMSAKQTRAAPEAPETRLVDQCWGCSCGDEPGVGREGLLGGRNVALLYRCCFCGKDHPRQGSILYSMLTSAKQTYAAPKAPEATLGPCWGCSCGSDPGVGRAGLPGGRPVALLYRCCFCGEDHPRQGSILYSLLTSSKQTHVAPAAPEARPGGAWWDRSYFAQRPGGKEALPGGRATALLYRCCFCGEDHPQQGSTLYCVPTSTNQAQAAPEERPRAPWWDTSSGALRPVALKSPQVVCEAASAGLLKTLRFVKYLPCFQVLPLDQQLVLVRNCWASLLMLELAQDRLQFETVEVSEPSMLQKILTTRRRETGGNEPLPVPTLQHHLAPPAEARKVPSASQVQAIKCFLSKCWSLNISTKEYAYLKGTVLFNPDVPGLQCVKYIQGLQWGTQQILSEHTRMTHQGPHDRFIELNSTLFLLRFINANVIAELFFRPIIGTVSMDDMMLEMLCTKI

[15] = cells; assay type: functional, cell-based
[16] = Luminescence Cell-Based Dose Confirmation HTS to Identify Activators of 5'UTR Stem-Loop Driven Alpha-Synuclein mRNA Translation in H4 Neuroglioblastoma Cells. [Related pubchem assays: 1829 (Project Summary), 1814 (Primary HTS)]; assay type: functional
[17] = test system: H4; experiment: Luminescence Cell-Based Dose Response HTS to Identify Activators of 5'UTR Stem-Loop Driven Prion Protein mRNA Translation in H4 Neuroglioblastoma Cells. [Related pubchem assays: 1829 (Project Summary), 1814 (Primary HTS)]; assay type: functional; conditions: Homo sapiens
[18] = NIH3T3 cell viability loss – ATP luminescence, mouse fibroblasts, counter-screen, dose response (AID 2010); assay type: functional, cell-based;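 also: cells exposed to compound for about 90 hours before reading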
[19] = Trypanosoma cruzi growth suppression in host cells – NIH3T3 host cells, beta-gal luminescence, confirmation (AID 2044); assay type: functional, cell-based;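 also: intracellular parasites grown in NIH/3T3 mouse fibroblasts as host cells; luminescent beta-galactosidase reporter signal from transgenic T. cruzi replicating inside host cells; inhibitors lower the luminescence signal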
[20] = Luminescence Cell-Based Dose Response HTS to Identify Activators of Luciferase Translation or Activity in H4 […] Cells. [Related pubchem assays: 1829 (Project Summary), 1814 (Primary HTS)]; assay type: functional
[21] = alpha-synuclein stem-loop luciferase translation blockers – H4 neuroglioma cells, luminescence, confirmation (AID 1988); assay type: functional, cell-based
[22] = luciferase reporter signal suppression in cells – H4 neuroglioma cells, luminescence, dose response (AID 1990); assay type: functional, cell-based
[23] = Luminescence Cell-Based Dose Response HTS to Identify Inhibitors of 5'UTR Stem-Loop Driven Prion Protein mRNA Translation in H4 Neuroglioblastoma Cells. [Related pubchem assays: 1827 (Project Summary), 1813 (Primary HTS)]; assay type: functional

Chain of Glucose-6-phosphate 1-dehydrogenase (P11413 whole entry): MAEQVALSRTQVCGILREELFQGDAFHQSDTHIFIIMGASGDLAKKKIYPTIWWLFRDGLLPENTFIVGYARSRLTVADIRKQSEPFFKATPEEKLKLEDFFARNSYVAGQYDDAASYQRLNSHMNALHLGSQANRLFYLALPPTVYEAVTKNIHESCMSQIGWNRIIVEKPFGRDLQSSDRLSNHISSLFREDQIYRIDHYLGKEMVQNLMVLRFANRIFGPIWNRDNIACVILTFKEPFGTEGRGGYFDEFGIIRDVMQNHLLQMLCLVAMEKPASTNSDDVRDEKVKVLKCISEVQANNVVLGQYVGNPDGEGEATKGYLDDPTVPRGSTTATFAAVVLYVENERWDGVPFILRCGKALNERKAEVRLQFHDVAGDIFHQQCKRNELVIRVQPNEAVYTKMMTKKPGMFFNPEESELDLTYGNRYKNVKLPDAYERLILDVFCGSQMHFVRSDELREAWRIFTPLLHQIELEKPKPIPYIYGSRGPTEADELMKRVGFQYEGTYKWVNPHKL

## CC(NC(=O)c1cc2cc(Br)ccc2oc1=N)c1ccccc1 (configuration not stated)
[1]
  CC50: 24.6 µM (active)
[2]
  IC50: 33.6 µM (active)

## CN1CCCC(CC2Oc3ccccc3Sc3ccccc32)C1 (configuration not stated)
[3]
  IC50: 15.8 µM (active)

## CCCCOc1ccc(OCCCCCCCCCC[N+](C)(C)C)cc1
[4]
  GI50: 1.61 µM (inactive)
[5]
  GI50: 0.94 µM (active)
[6]
  GI50: 7.05 µM (inactive)

## CSc1nc(NC2OCC(O)C(O)C2O)c(N)c(=O)[nH]1 (configuration not stated)
[4]
  GI50: > 100 µM (inactive)
[5]
  GI50: > 100 µM (inactive)
[6]
  GI50: > 100 µM (inactive)

## Cn1c(-c2ccccc2O)cc2ccccc21
[3]
  IC50: 13.2 µM (active)

## CCOc1ccc(NC(=NCc2ccc3c(c2)OCO3)SC2CC(=O)N(c3ccc(OCC)cc3)C2=O)cc1 (configuration not stated)
[7]
  IC50: > 50 µM (not active)

## CCn1c(SCC(=O)Nc2ccccc2OC)nnc1-c1cnccn1
[8]
  IC50: > 80 µM (inactive)

## Cc1ccc2c(c1)C=CC(C#N)N2C(=O)c1ccccc1 (configuration not stated)
[9]
  EC50: 25.5 µM (inconclusive)
[10]
  EC50: 3.69 µM (active)
[11]
  EC50: 1.54 µM (active)
[12]
  IC50: > 80 µM (inactive)
[13]
  EC50: > 150 µM (not active)

## CN1CCN(C(=O)c2ccc3c(Cl)c4c(nc3c2)CCCC4)CC1
[14]
  IC50: > 67.6 µM (inactive)
[15]
  IC50: > 67.6 µM (inactive)

## C=C(OC1C(C)=C2C(C1OC(=O)CCCCCCC)C(C)(OC(C)=O)CC(OC(=O)CCC)C1(O)C2OC(=O)C1(C)O)/C(C)=C/C (configuration not stated)
[4]
  GI50: 0.0125 µM (active)
[5]
  GI50: 0.0125 µM (active)
[6]
  GI50: 0.0251 µM (active)

## CCCCCOc1ccc(CSC2=NCCN2)cc1[N+](=O)[O-]
[16]
  EC50: 14.1 µM (active)
[1]
  CC50: > 40 µM (active)
[17]
  EC50: 22.2 µM (active)
[18]
  EC50: > 60 µM (not active)
[19]
  EC50: 0.534 µM (active)
[20]
  EC50: > 120 µM (not active)

## Oc1ccc(Br)cc1/C=N/c1ccc(Cl)cc1
[7]
  IC50: 43.8 µM (not active)

## Cc1ccc(CSc2nc3ccccc3cc2C=O)cc1
[21]
  EC50: 9.33 µM (active)
[9]
  EC50: 0.668 µM (active)
[10]
  EC50: 0.689 µM (active)
[11]
  EC50: 1.59 µM (active)
[22]
  EC50: > 120 µM (not active)
[23]
  EC50: 11.9 µM (active)
[13]
  EC50: 1.87 µM (active)

## Cc1cc(NC(=O)NC(=O)c2ccccc2F)no1
[14]
  IC50: > 67.5 µM (inactive)
[15]
  IC50: > 67.5 µM (inactive)

## Cc1ccc(/C=C/C(=O)NCCc2cccc(Cl)c2)o1
[8]
  IC50: > 80 µM (inactive)

## Cc1c2c(cc3c1[nH]c1ccccc13)C=NCC2
[4]
  GI50: 6.98 µM (inactive)
[5]
  GI50: 6.93 µM (inactive)
[6]
  GI50: 8 µM (inactive)
